Data from patent US11446299B2, “Carbazole EHop-016 derivatives as anticancer and anti-migratory agents” (UNIVERSITY OF PUERTO RICO, priority 2017, dated 2022).

Tests used:
[1] = tested on: MCF-7 cancer cells; experiment: Sulforhodamine B (SRB) growth inhibition assay; assay type: cell-based; conditions: Homo sapiens, MCF7, 24 h treatment, mean of triplicate, SD <10%
Method: (§1) Various compounds were tested to evaluate the dose response curve for effect on MCF-7 cancer cells and MDA-MB-231 cancer cells. MCF-7 and MDA-MB-231 cells were cultured in 10% Minimum Essential Medium Eagle (MEME) supplemented with Earle's Balanced Salt Solution (EBSS), Non-essential Amino acids (NEAA), Sodium pyruvate, Pen/Strep, L-glutamine and Fetal Bovine Serum (FBS) at 37° C. in 5% CO2.
(§2) Sulforhodamine B (SRB) Assay: A stock solution of compounds was prepared at 50 mM in 100% DMSO. For cells preparation, a flask of 75 cm^2 or 25 cm^2 were used for 2.6×10^5 cells or 1.44×10^5 cells respectively with an 80-90% of confluence. Cells were washed with PBS and trypsinized. The concentration of cells was determined using a 1:2 dilutions with Trypan Blue and a hemocytometer. After cell count, the concentration was adjusted to have a 1.9×10^4 cells/well. Approximately […] of cells suspension, compounds, control positive and control negative were added in triplicates to a 96 well plate. Positive controls used were ellipticine, doxorubicin, and/or vincristine, and the negative control was DMSO 0.1%. All compounds at 50, 25, 12.5, 6.3, and 1.6 μM were incubated with cells at 37° C. for 24 hrs. For fixation, cold TCA 50% was used and incubated at 4° C. for 1 hr. Wells were washed and dried prior to tincture with 100 μL of SRB 0.4%. To remove excess of SRB, acetic acid was used. For analysis, TRIS-BASE Solution (pH=10.5) was used and shacked prior to reading using an ELISA reader at 510 nm and the software SoftMax Pro 4.8.
(§3) For each compound, 50% growth inhibition (GI50) was calculated from Sigmoidal dose-response curves (variable-slope) that were generated with data obtained from experiments carried out in triplicates (GI50 values were generated with GraphPad Prism V. 6.02, GraphPad Software, Inc.). The results are presented in FIGS. 4A-4B (MCF-7 cancer cells) and FIGS. 5A-5B (MDA-MB-231 cancer cells).

[2] = tested on: MDA-MB-231 cancer cells; experiment: Sulforhodamine B (SRB) growth inhibition assay; assay type: cell-based, human; conditions: Homo sapiens, MDA-MB-231; SRB assay, 24 h treatment, mean of triplicate, SD <10%
Method: as §1, §2, §3

[3] = tested on: MDA-MB-231 breast cancer cells; experiment: Wound healing assay (scratch method), cell migration; assay type: cell-based, human; conditions: Homo sapiens; percent relative migration at 10 μM after 24 h, relative to control, MDA-MB-231
Method: The experimental data of anti-migratory activities for compounds 3a-d and 4a-f were obtained using MDA-MB-231 breast cancer cells. For the migration assay, a wound-healing assay (scratch-wound assay) was utilized in the presence of vehicle (0.02% DMSO) or compounds at […].
Prior to assays, cells were grown until 80-90% confluence was observed. A 75 cm2 flask was used for 2.6×10^5 cells/mL in 10 mL and for a 25 cm2 flask 1.44×10^5 cells/mL in 5 mL. The cells were washed with PBS to remove all traces of FBS. 2 mL was added for a 25 cm2 flasks or 4 mL for a 75 cm2 flasks trypsin, and incubated 5-10 min at 37° C. At the end of the incubation time, cells were re-suspended and counted with hemocytometer using 1:2 dilutions with Trypan blue. Subsequently, cell viability was calculated. In a 12 multiwell plate, the plastic pattern was used to draw a fine space with a fine marker on the bottom of the plate. Cells were seeded at 1.5-2.2×10^5 cells/mL in 1 mL and incubated for 24 h. Cells were then rinsed with PBS and incubated in starving media (0.5% FBS) overnight. All controls and drugs were tested in triplicate. The negative control for each drug was prepared according to the drug's DMSO concentration.
Drugs were diluted and the final concentration at each well […]. The wound was made using a sterile pipette tip of […]. Cells were then rinsed very gently with media without FBS and media with negative controls was added. After a 24 h incubation, the gap distance was evaluated using the software Lumera Infinity Analyze 6.4.0. Pictures were taken at 0, 8, 12 and 24 h using a 10× objective. The percentage of migration was calculated using the following formula: 100−[(X0/X0)]*100 for time 0 h measurements 100−[(X24/X0)]*100 for time 24 h measurements
The experimental data of anti-migratory activities for compounds 3a-d and 4a-f were obtained using MDA-MB-231 breast cancer cells, and results are summarized in Table 1. For the migration assay, we used a wound-healing assay (scratch-wound assay)^22 in the presence of vehicle (0.02% DMSO) or compounds at 10 μM (FIG. 6). […] However, compounds 3a, 3c, and 4a-f inhibited migration in the range of 1-9%.
An additional example of a compounds with modification in building block C was synthesized via a different procedure as represented in Scheme 2B (see FIG. 11B). The compounds that were synthesized were tested for their biological activity by determination of their cytotoxicity in MDA-MB-231 breast cancer cell lines as shown in Table 5. The cytotoxicity's are expressed as IC50, which indicates the concentration at which 50% of the cell growth is inhibited. Furthermore, the inhibition of cell migration was tested at a concentration of 0.2×IC50, or, when the IC50 was >50 μM at a concentration of 10 μM. For comparison, Table 5 also includes the Lipinski and drug-likeness parameters as calculated via the MolSoft platform.
Migration assays were performed via the Scratch Method as described previously.

How did the GI50 [1] turn out when CCn1c2ccccc2c2cc(NC(=O)c3cccnc3N3CCN(c4ccccc4)CC3)ccc21 [Compound 3c, N-(9-ethyl-9H-carbazol-3-yl)-2-(4-phenylpiperazin-1-yl)nicotinamide] was run?
The GI50 was over 50 µM.

What about the GI50 [2] of the same molecule?
Its GI50 is over 50 µM.

What about the activity at 10 µM [3] of the same molecule?
The activity at 10 µM was 99 ± 1.89%.

With CCn1c2ccccc2c2cc(Nc3ncccc3NC(=O)CCN3CCCCC3)ccc21 [Compound 7a, N-[2-(9-Ethyl-9H-carbazol-3-ylamino)-pyridin-3-yl]-3-piperidin-1-yl-propionamide] as the molecule, how does the GI50 [1] read?
Its GI50 is 15 µM.

What about the GI50 [2] of the same molecule?
The GI50 was 23 µM.

What about the activity at 10 µM [3] of the same molecule?
The activity at 10 µM was 99 ± 4.29%.

What does the source list for CCn1c2ccccc2c2cc(NC(=O)c3ccccc3C(=O)NCCO)ccc21 [Compound 14f, N^1-(9-ethyl-9H-carbazol-3-yl)-N^2-(2-hydroxyethyl)phthalamide]?
GI50 [1]: > 50 µM; GI50 [2]: > 50 µM; activity at 10 µM [3]: 98 ± 1.83%

How did the GI50 [1] turn out when CCN(CC)CCCC(C)NC(=O)c1cccnc1Nc1ccc2c(c1)c1ccccc1n2CC (stereo not drawn) [Compound 4d, N-(4-Diethylamino-1-methyl-butyl)-2-(9-ethyl-9H-carbazol-3-ylamino)-nicotinamide] was run?
Its GI50 is 13 µM.

What about the GI50 [2] of the same molecule?
The GI50 was 18 µM.

What about the activity at 10 µM [3] of the same molecule?
Its activity at 10 µM is 91 ± 14.1%.

For CCn1c2ccccc2c2cc(NC(=O)c3nccnc3C(=O)NCCCn3ccnc3)ccc21 [Compound 14c, Pyrazine-2,3-dicarboxylic acid 2-[(9-ethyl-9H-carbazol-3-yl)-amide]-3-[(3-imidazol-1-yl-propyl)-amide]], which GI50 [1] is on record?
Its GI50 is over 50 µM.

And the GI50 [2]?
Its GI50 is over 50 µM.

And the activity at 10 µM [3]?
Its activity at 10 µM is 99 ± 4.5%.

Which results are given for CCn1c2ccccc2c2cc(Nc3ncccc3C(=O)Nc3cc(OC)c(OC)c(OC)c3)ccc21 [Compound 4f, 2-((9-ethyl-9H-carbazol-3-yl)amino)-N-(3,4,5-trimethoxyphenyl)nicotinamide]?
GI50 [1]: > 50 µM; GI50 [2]: > 50 µM; activity at 10 µM [3]: 92 ± 8.55%

Which GI50 [1] does the source give for CCn1c2ccccc2c2cc(NC(=O)C3CCCCC3C(=O)NCCCN3CCOCC3)ccc21 (stereo not drawn) [Compound 14h, cyclohexane-1,2-dicarboxylic acid 1-[(9-ethyl-9H-carbazol-3-yl)-amide]-2-[(3-morpholin-4-yl-propyl)-amide]] here?
Its GI50 is over 50 µM.

What about the GI50 [2] of the same molecule?
The GI50 was over 50 µM.

What about the activity at 10 µM [3] of the same molecule?
Its activity at 10 µM is 100 ± 0.56%.

How did the GI50 [1] turn out when CCn1c2ccccc2c2cc(C(=O)Nc3cccnc3NCCCN3CCOCC3)ccc21 [Compound 11a, 9-Ethyl-9H-carbazole-3-carboxylic Acid [2-(3-morpholin-4-yl-propylamino)-pyridin-3-yl]-amide] was run?
The GI50 was 32 µM.

And the GI50 [2]?
Its GI50 is 39 µM.

What about the activity at 10 µM [3] of the same molecule?
The activity at 10 µM was 89 ± 10.1%.

With CCn1c2ccccc2c2cc(Nc3ncccc3C(=O)NCCCn3ccnc3)ccc21 [Compound 4c, N-(3-(1H-imidazol-1-yl)propyl)-2-((9-ethyl-9H-carbazol-3-yl)amino)nicotinamide] as the molecule, how does the GI50 [1] read?
The GI50 was 27 µM.

What about the GI50 [2] of the same molecule?
Its GI50 is over 50 µM.

And the activity at 10 µM [3]?
The activity at 10 µM was 93 ± 2.01%.

With CCn1c2ccccc2c2cc(NC(=O)c3ccccc3C(=O)NCCOC)ccc21 [Compound 14e, N^1-(9-ethyl-9H-carbazol-3-yl)-N^2-(2-methoxyethyl)phthalamide] as the molecule, how does the GI50 [1] read?
Its GI50 is over 50 µM.

What about the GI50 [2] of the same molecule?
Its GI50 is over 50 µM.

What about the activity at 10 µM [3] of the same molecule?
The activity at 10 µM was 99 ± 2.57%.

Which results are given for CCn1c2ccccc2c2cc(NC(=O)c3nccnc3C(=O)NCCOC)ccc21 [Compound 14d, N^2-(9-ethyl-9H-carbazol-3-yl)-N^3-(2-methoxyethyl)pyrazine-2,3-dicarboxamide]?
GI50 [1]: > 50 µM; GI50 [2]: > 50 µM; activity at 10 µM [3]: 100 ± 5.2%
